How the values were obtained:
[1] = test system: neonatal rat cardiomyocytes; experiment: Neonatal rat cardiomyocyte proliferation, DNA synthesis by BrdU incorporation; assay type: cell-based; conditions: for cardiomyocyte proliferation: 48 hours, FIG. 22
Description: Neonatal rat cardiomyocytes were isolated from postnatal day 2 Wistar rat pups. Rat pups were anesthetized by hypothermia in ice water for 10 min and euthanized by decapitation. Hearts were isolated and placed in PBS-G (KCl 2 g/L; KH2PO4 2 g/L; NaCl 80 g/L; Na2HPO4.7H20 21.6 g/L; D-glucose 10 g/L) on ice. The atria were removed and ventricles were washed in PBS-G and cut into pieces smaller than 2 millimeters. PBS-G containing 119.6 units/ml collagenase type 2 and 0.2 mg/ml pancreatin was warmed to 37° C. Amounts of collagenase were adjusted for batch variations in units/mg activity. Ventricles were dissociated in collagenase/pancreatin solution for 15 minutes on a rotator at 37° C. Tissue was dispersed gently by pipetting and allowed to settle for 5 min at room temperature. Cell suspension from first dissociation was discarded and replaced with fresh collagenase/pancreatin solution, and incubated at 37° C. for 15 minutes on an orbital shaker. Tissue was again dispersed and allowed to settle. The cell supension was transferred to a new tube and incubated an additional 5 min at 37° C., and the digestion was stopped by addition of an equal volume of DMEM/20% NCS and stored on ice. Digestion of the ventricular tissue was repeated 3 additional times and supernatants were collected and stored on ice in equal volumes of DMEM/20% NCS.
Cells from all the fractions were collected at 200 RCF for 6 min at room temperature. Cell pellets were resuspended in 2 ml ADS buffer (6.8 g/L NaCl, 0.4 g/L KCl, 1.0 g/L D-glucose, 1.5 g/L NaH2PO4, 4.75 g/L HEPES, 0.1 MgSO4.7H2O). One ml of cell suspension was applied to two Percoll gradients set up in the following manner. The top Percoll gradient (density 1.059 g/ml) was generated by mixing Percoll stock with ADS buffer in a 9:11 ratio, and the bottom Percoll gradient (density 1.082 g/ml) was made by mixing Percoll stock and ADS buffer in a 13:7 ratio. Four ml Top Percoll was added to a 15 ml conical tube, and three ml Bottom Percoll was laid below it by placing a pipet tip at the bottom of the tube, then carefully withdrawing it as the solution was delivered. The gradients were centrifuged at 3000 rpm for 30 consecutive minutes at room temperature. Cardiac non-myocytes were located above the top percoll buffer while cardiac myocytes were located at the interface of the top and bottom percoll layers. Blood and undissociated tissue were found at the bottom of the tube. Cardiac myocytes were collected after the top percoll was aspirated, and resuspended in DMEM/10% FBS, then centrifuged at 200 RCF for 6 min. Pelleted myocytes were resuspended in plating medium containing DMEM with 25 mM HEPES, 5% horse serum, 4 mM glutamine, penicillin and streptomycin. Four volumes of DMEM/10% FBS were added and the cell suspension was passed through a 40 uM cell strainer. Cells were pre-plated in 10 cm tissue culture plates for 1 hour at 37° C. Unattached cells were collected from the medium and centrifuged at 200 RCF for 6 min. Pelleted myocytes were resuspended in plating medium containing 10 uM AraC at a density of 100000 cells/ml and 200 ul/well were distributed into 96 well plates which had previously been coated with 0.1% gelatin/12.5 ug/ml fibronectin at 37° C. for more than 4 hours. Plated cells were grown for at least 48 hours at 37° C. prior to use in further experiments.
Briefly, the experiments summarized in FIG. 15 and FIG. 16 were conducted as follows. Neonatal rat cardiomyocytes were prepared and cultured as outlined in example 1. […]

beta-catenin = experiment: Nuclear beta-catenin assay in rat neonatal cardiomyocytes; assay type: cell-based; conditions: 16 hours, FIG. 23
Text: We have used a nuclear beta-catenin assay to readily identify Wnt-related polypeptides that promote Wnt signaling via the canonical Wnt signaling pathway in cardiac cells. Specifically, and by way of example, we conducted a nuclear beta-catenin assay in rat neonatal cardiomyocytes to identify Wnt-related polypeptides that promote Wnt signaling via the canonical Wnt signaling pathway in cardiomyocytes. Such an assay conducted in neonatal or adult cardiac cells including, but not limited to, cardiomyocytes can be used to identify candidate agents that are capable of promoting Wnt signaling via the canonical Wnt signaling pathway in cardiac cells.
Briefly, neonatal cardiomyocytes were prepared and plated as outlined in detail above. Cells were washed two times with serum-free medium and were incubated in medium containing either a recombinant Wnt-related polypeptide, or some control factor. Cells were incubated for 16 hours, were fixed in 4% Formaldehye for 10 minuntes at room temperature, and were permeabilized with 0.2% Triton X-100 for 5 minutes. […] Although beta-catenin is not typically detectable by immunocytochemistry in the absence of active Wnt signaling, the nuclei were counterstained with 4′,6-diamidino-2-phenylindole (DAPI) to specifically confirm that the detected beta-catenin expression was localized to the nucleus. […]
Neonatal cardiomyocytes were cultured under one of the following conditions: medium alone (negative control), 10 mM LiCl, 2% fetal calf serum (FCS), 10% fetal calf serum (FCS), 25 ng/ml recombinant mouse Wnt5A (Catalog# 645-WN/CF), 50 ng/ml recombinant mouse Wnt5A (Catalog# 645-WN/CF), 100 ng/ml recombinant mouse Wnt5A (Catalog# 645-WN/CF), 25 ng/ml recombinant mouse Wnt3A (Catalog # 1324-WN/CF), 50 ng/ml recombinant mouse Wnt3A (Catalog # 1324-WN/CF), or 100 ng/ml recombinant mouse Wnt3A (Catalog # 1324-WN/CF). Following culture under one of the foregoing conditions, cells were analyzed by immunocytochemistry for expression of beta-catenin protein, and nuclear localization was verified by counterstaining the cells with DAPI. […]

[2] = test system: neonatal rat cardiomyocytes; experiment: Hypertrophic response: ANF and tropomyosin immunocytochemistry in neonatal rat cardiomyocytes; conditions: Wnt3A 150 ng/ml, phenylephrine as hypertrophic stimulus
Description: Briefly, neonatal rat cardiomyocytes were treated with serum or phenylephrine (two agents known to induce hypertrophy), or were treated with 150 ng/ml recombinant Wnt3A. Following treatment, the cells were analyzed by immunocytochemistry for expression of atrial naturietic factor (ANF) (rabbit anti-ANF/Peninsula laboratories/Bachem) or expression of tropomyosin (CH1 antibody available from Developmental Hybridoma).

[3] = test system: unfractionated adult cardiac cells; experiment: Viable cell count, unfractionated adult cardiac cells; assay type: cell-based, mouse; conditions: unfractionated (whole heart) preparations, 3-4 days culture; recombinant Wnt3A at 50 ng/ml; FIGS. 24, 25a
Description: (§1) Whole hearts were obtained from adult mice (greater than 5 weeks of age). Cardiac tissue was minced and washed three times to remove blood. Cardiac cells were dissociated with pancreatin and collagenase for 15 minutes at 37° C. and washed. Following dissociation the unfractionated cells were either plated, or fractionated into a Sca1+ and Sca1− population prior to plating. These three cardiac cell populations (unfractionated cell preparation; Sca1+cell preparation; Sca1− cell preparation) were cultured in the presence of various Wnt-related compositions. Specifically, the cardiac cell preparations were cultured for 3-4 days in either L-cell conditioned medium alone; LWW60 conditioned medium; or culture medium containing purified Wnt3A protein. Following 3-4 days in culture, the cardiac cells were washed with PBS and trypsinized, and viable cells were counted.

β-catenin = β-catenin stabilization by immunocytochemistry in neonatal rat cardiomyocytes; assay type: cell-based; conditions: 48 hours in neonatal base medium; recombinant Wnt3A 167 ng/ml or 500 ng/ml, or serum; FIG. 19
Description: Briefly, neonatal rat cardiomyocytes were treated with either serum or with recombinant Wnt3A (e.g., 167 ng/ml or 500 ng/ml) in neonatal base medium for 48 hours. The treated cells were fixed, permeablilized with 0.5% Triton-X-100 for 15 minutes, and blocked in 5% goat serum in PBS-T for one hour. Mouse anti-β-catenin antibody (BD-Pharmingen) diluted 1:250 were incubated on cells for one hour. Cells were washed 3 times in PBS-T and incubated one hour in Alexa 594 goat anti-mouse antibody (Molecular Probes) at a dilution of 1:200.

Sca1+ cell preparation = experiment: Viable cell count, Sca1+ adult cardiac cell preparation; assay type: cell-based, mouse; conditions: Sca1+ cell preparations, 3-4 days culture; recombinant Wnt3A at 50 ng/ml; FIG. 25a
Description: as §1

[4] = test system: one or more non-cardiac cells types; conditions: cited from earlier work
[5] = test system: Wnt3A induced cardiomyocyte proliferation; experiment: Wnt antagonists co-administered with Wnt3A-L-cell supernatant, cardiomyocyte proliferation; assay type: cell-based, rat; conditions: 100 ng/ml of the Wnt inhibitor; FIG. 18
Description: To confirm that Wnt3A was responsible for the stimulation of cardiomyocyte proliferation observed in FIG. 17, we co-administered supernatant from Wnt3A expressing mouse L-cells and the Wnt antagonist dkk (recombinant dkk obtained from R&D Systems).
Nevertheless, the inhibition of Wnt3A induced cardiomyocyte proliferation by dkk supports the conclusion that Wnt3A is the active cardiomyocyte proliferative factor in the conditioned medium.
The experiments were conducted and analyzed as detailed above in examples 2 and 3.

[6] = recombinant mouse Wnt protein 25 ng/ml-100 ng/ml

## [Cl-].[Li+] [LiCl, lithium chloride, reference compound]
[1]; LiCl 10 mM, 5 mM or 2.5 mM
  cardiomyocyte proliferation: promoted cardiomyocyte proliferation
beta-catenin; 10 mM LiCl, versus medium alone or 2% or 10% serum
  beta-catenin nuclear localization (percentage of cells with nuclear beta-catenin staining): promoted beta-catenin nuclear localization

## CNC[C@H](O)c1cccc(O)c1 [phenylephrine]
[2]; FIG. 20
  ANF expression increased: increased
[2]; FIG. 21
  change in cardiomyocyte cell size and shape: vastly different cell shape, size, and morphology

## Wnt3A
[3]
  number of viable cells: also increased the number of viable cells
β-catenin
  stabilization of β-catenin (increased detection and nuclear localization), Wnt signaling: resulted in stabilization of β-catenin
[1]; higher doses of Wnt3A, FIG. 16
  cardiomyocyte proliferation level compared with serum: comparable to serum
[1]; recombinant Wnt3A 150, 50 or 17 ng/ml
  cardiomyocyte proliferation: promoted cardiomyocyte proliferation
[1]; recombinant Wnt3A dilution series, FIG. 16
  cardiomyocyte proliferation, dilution series: promoted cardiomyocyte proliferation in a dose dependent manner
[1]; recombinant mouse Wnt3A 0.06, 0.4, 2.3, 14, 83 and 500 ng/ml, FIG. 15
  cardiomyocyte proliferation, as measured by incorporation of BrdU: statistically significant, dose dependent increase in cardiomyocyte proliferation
beta-catenin; [6]
  beta-catenin nuclear localization (percentage of cells with nuclear beta-catenin staining): promoted beta-catenin nuclear localization
Sca1+ cell preparation
  number of viable cells: also increased the number of viable cells
[4]
  Wnt signaling pathway shown in one or more non-cardiac cell types: signal via the canonical pathway

B1: Wnt5A: recombinant mouse Wnt5A (Catalog# 645-WN/CF) (protein, UniProt P22725 62-380, looked up)
Protein Wnt-5a: IIGAQPLCSQLAGLSQGQKKLCHLYQDHMQYIGEGAKTGIKECQYQFRHRRWNCSTVDNTSVFGRVMQIGSRETAFTYAVSAAGVVNAMSRACREGELSTCGCSRAARPKDLPRDWLWGGCGDNIDYGYRFAKEFVDARERERIHAKGSYESARILMNLHNNEAGRRTVYNLADVACKCHGVSGSCSLKTCWLQLADFRKVGDALKEKYDSAAAMRLNSRGKLVQVNSRFNSPTTQDLVYIDPSPDYCVRNESTGSLGTQGRLCNKTSEGMDGCELMCCGRGYDQFKTVQTERCHCKFHWCCYVKCKKCTEIVDQFVCK
beta-catenin; [6]
  beta-catenin nuclear localization (percentage of cells with nuclear beta-catenin staining): did not promote beta-catenin nuclear localization
[4]
  Wnt signaling pathway shown in one or more non-cardiac cell types: signal via the non-canonical signaling pathway

B2: FRP2: Wnt inhibitor, secreted frizzled-related protein class (protein, UniProt Q96HF1 25-295, looked up)
Secreted frizzled-related …: LFLFGQPDFSYKRSNCKPIPANLQLCHGIEYQNMRLPNLLGHETMKEVLEQAGAWIPLVMKQCHPDTKKFLCSLFAPVCLDDLDETIQPCHSLCVQVKDRCAPVMSAFGFPWPDMLECDRFPQDNDLCIPLASSDHLLPATEEAPKVCEACKNKNDDDNDIMETLCKNDFALKIKVKEITYINRDTKIILETKSKTIYKLNGVSERDLKKSVLWLKDSLQCTCEEMNDINAPYLVMGQKQGGELVITSVKRWQKGQREFKRISRSIRKLQC
[5]
  abolition of Wnt3A induced cardiomyocyte proliferation: did not

B3: FRP3: Wnt inhibitor, secreted frizzled-related protein class (protein, UniProt Q92765 33-325, looked up)
Secreted frizzled-related …: AACEPVRIPLCKSLPWNMTKMPNHLHHSTQANAILAIEQFEGLLGTHCSPDLLFFLCAMYAPICTIDFQHEPIKPCKSVCERARQGCEPILIKYRHSWPENLACEELPVYDRGVCISPEAIVTADGADFPMDSSNGNCRGASSERCKCKPIRATQKTYFRNNYNYVIRAKVKEIKTKCHDVTAVVEVKEILKSSLVNIPRDTVNLYTSSGCLCPPLNVNEEYIIMGYEDEERSRLLLVEGSIAEKWKDRLGKKVKRWDMKLRHLGLSKSDSSNSDSTQSQKSGRNSNPRQARN
[5]
  abolition of Wnt3A induced cardiomyocyte proliferation: did not

Reference: patent publication US20050261189A1, “Methods of promoting cardiac cell proliferation” (Hydra Biosciences, Inc., priority 2004, published 2005)
